The values that follow come from US6656941B2, “Aryl substituted tetrahydroindazoles” (Neurogen Corporation, priority 2000, dated 2003).

Usually melting point stands for the temperature of the solid-liquid transition.

`CCCNCCOc1ccc(NC(=O)c2n[nH]c3c2C(=O)CCC3)cn1` [Example 4, 4-Oxo-4,5,6,7-tetrahydro-1H-indazole-3-carboxylic acid [6-(2-propylamino-ethoxy)-pyridin-3-yl]-amide] gave a melting point of 120 °C.
